In EP3928779A1 (Chugai Seiyaku Kabushiki Kaisha, priority 2014, dated 2016):

Tested on: rat small-intestinal brush border membrane vesicles
Test: Inhibitory effect on 33PO4 uptake into rat small-intestinal brush border membrane vesicles (rapid filtration method)
Type: biochemical
Settings: 33PO4 uptake into rat small-intestinal BBMVs; test compound 1 µM; reacted for 60 seconds
Procedure, shortened: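 Uptake of ^33PO4 was measured by rapid filtration and liquid scintillation counting of filter-retained vesicles, after quenching with ice-cold 110 mM NaCl/1 mM KH2PO4/10 mM HEPES pH 7.5. Vesicles were brush border membranes from the upper small intestine of female Wistar rats aged 4–5 weeks.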

Row | SMILES | Rate of uptake inhibition (%) (1 µM)
1 | C[C@]12CCCN1N(Cc1ccccc1Cl)C(=O)C(C(=O)Nc1cc(F)c(Br)c(F)c1)=C2O [Example 219] | 95%
2 | C[C@]12CCCN1N(Cc1cccc(C#N)c1)C(=O)C(C(=O)Nc1cc(F)c(Br)c(F)c1)=C2O [Example 220] | 96%
3 | C[C@]12CCCN1N(Cc1cccc(Cl)c1)C(=O)C(C(=O)Nc1cc(F)c(Br)c(F)c1)=C2O [Example 221] | 82%
4 | C[C@]12CCCN1N(Cc1ccc(C#N)cc1)C(=O)C(C(=O)Nc1cc(F)c(Br)c(F)c1)=C2O [Example 222] | 97%
5 | C[C@]12CCCN1N(Cc1ccc(Cl)cc1)C(=O)C(C(=O)Nc1cc(F)c(Br)c(F)c1)=C2O [Example 223] | 77%
6 | C[C@]12CCCN1N(CCCC(F)(F)F)C(=O)C(C(=O)Nc1ccc(C(F)(F)F)cc1-c1cc(C(F)(F)F)ncn1)=C2O [Example 234, (4aR)-4-Hydroxy-4a-methyl-2-oxo-1-(4,4,4-trifluorobutyl)-N-[4-(trifluoromethyl)-2-[6-(trifluoromethyl)pyrimidin-4-yl]henyl]-6,7-dihydro-5H-pyrrolo[1,2-b]pyridazine-3-carboxamide] | 73%
7 | CCOC(=O)CCCCCCN1C(=O)C(C(=O)Nc2ccc(C(F)(F)F)cc2-c2ccc(C(F)(F)F)nc2)=C(O)[C@@]2(C)CCCN12 [Example 235, Ethyl 7-[(4aR)-4-hydroxy-4a-methyl-2-oxo-3-[[4-(trinuoromethyl)-2-[6-(trifluoromethyl)pyridin-3-yl]phenyl]carbamoyl]-6,7-dihydro-5H-pyrrolo[1,2-b]pyridazin-1-yl]heptanoate] | 65%
8 | COCCOCCOCCCCCCCCN1C(=O)C(C(=O)Nc2ccc(C(F)(F)F)cc2-c2cc(C(F)(F)F)ncn2)=C(O)[C@@]2(C)CCCN12 [Example 236, (4aR)-4-Hydroxy-1-[8-[2-(2-methoxyethoxy)ethoxy]octyl]-4a-methyl-2-oxo-N-[4-(trifluoromethyl)-2-[6-(trifluoromethyl)pyrimidine-4-yl]phenyl]-6,7-dihydro-5H-pyrrolo[1,2-b]pyridazine-3-carboxamide] | 60%
9 | CN1[C@@H](C(C)(C)C)C(O)=C(C(=O)Nc2ccc(Cl)cc2-c2cc(C(F)(F)F)ncn2)C(=O)N1Cc1cccc(F)c1F [Example 237] | 51%
10 | CN1[C@@H](C(C)(C)C)C(O)=C(C(=O)Nc2ccc(C(F)(F)F)cc2-c2ccc(C(F)(F)F)nc2)C(=O)N1Cc1cccc(F)c1F [Example 238] | 47%
11 | CN1[C@@H](C(C)(C)C)C(O)=C(C(=O)Nc2ccc(Cl)cc2-c2ccc(C(F)(F)F)nc2)C(=O)N1Cc1cccc(F)c1F [Example 239] | 48%
12 | CN1[C@@H](C(C)(C)C)C(O)=C(C(=O)Nc2cc(F)c(Br)c(F)c2)C(=O)N1Cc1cccc(F)c1F [Example 240] | 72%
13 | Cc1nc(NC(=O)C2=C(O)[C@H](C(C)(C)C)N(C)N(Cc3cccc(F)c3F)C2=O)ccc1Br [Example 241] | 86%
14 | CN1[C@@H](C(C)(C)C)C(O)=C(C(=O)Nc2ccc(Br)c(C(F)(F)F)n2)C(=O)N1Cc1cccc(F)c1F [Example 242] | 69%
15 | CN1[C@@H](C(C)(C)C)C(O)=C(C(=O)Nc2ccc(Br)c(C(F)(F)F)c2)C(=O)N1Cc1cccc(F)c1F [Example 243] | 63%
16 | CN1[C@@H](C(C)(C)C)C(O)=C(C(=O)Nc2cccc(C(F)(F)F)n2)C(=O)N1Cc1cccc(F)c1F [Example 244] | 71%
17 | CCN1[C@@H](C(C)(C)C)C(O)=C(C(=O)Nc2ccc(Cl)cc2-c2ccc(C(F)(F)F)nc2)C(=O)N1Cc1cccc(F)c1F [Example 245] | 40%
18 | CCN1[C@@H](C(C)(C)C)C(O)=C(C(=O)Nc2cc(F)c(Br)c(F)c2)C(=O)N1Cc1cccc(F)c1F [Example 246] | 52%

Row | SMILES | Rate of uptake inhibition (%) (1 µM)
19 | CC(C)(C)[C@H]1C(O)=C(C(=O)Nc2ccc(Cl)cc2-c2ccc(C(F)(F)F)nc2)C(=O)N(Cc2cccc(F)c2F)N1CC(F)(F)F [Example 247] | 51%
20 | CC(C)(C)[C@H]1C(O)=C(C(=O)Nc2cc(F)c(Br)c(F)c2)C(=O)N(Cc2cccc(F)c2F)N1CC(F)(F)F [Example 248] | 45%
21 | CC(C)[C@@H]1C(O)=C(C(=O)Nc2ccc(C(F)(F)F)cc2-c2cc(C(F)(F)F)ncn2)C(=O)N(Cc2cccc(F)c2F)N1C [Example 249] | 50%
22 | CC(C)[C@@H]1C(O)=C(C(=O)Nc2ccc(Cl)cc2-c2cc(C(F)(F)F)ncn2)C(=O)N(Cc2cccc(F)c2F)N1C [Example 250] | 52%
23 | CC(C)[C@@H]1C(O)=C(C(=O)Nc2ccc(Cl)cc2-c2ccc(C(F)(F)F)nc2)C(=O)N(Cc2cccc(F)c2F)N1C [Example 251] | 43%
24 | CC(C)[C@H]1C(O)=C(C(=O)Nc2ccc(C(F)(F)F)cc2-c2cc(C(F)(F)F)ncn2)C(=O)N(Cc2cccc(F)c2F)N1C [Example 252] | 53%
25 | CC(C)[C@H]1C(O)=C(C(=O)Nc2ccc(C(F)(F)F)cc2-c2ccc(C(F)(F)F)nc2)C(=O)N(Cc2cccc(F)c2F)N1C [Example 253] | 40%
26 | CC(C)[C@H]1C(O)=C(C(=O)Nc2cc(F)c(Br)c(F)c2)C(=O)N(Cc2cccc(F)c2F)N1C [Example 254] | 58%
27 | CN1N(Cc2cccc(F)c2F)C(=O)C(C(=O)Nc2ccc(Cl)cc2-c2cc(C(F)(F)F)ncn2)=C(O)C12CCC2 [Example 255] | 80%
28 | CN1N(Cc2cccc(F)c2F)C(=O)C(C(=O)Nc2ccc(Cl)cc2-c2ccc(C(F)(F)F)nc2)=C(O)C12CCC2 [Example 256] | 79%
29 | CN1N(Cc2cccc(F)c2F)C(=O)C(C(=O)Nc2cc(F)c(Br)c(F)c2)=C(O)C12CCC2 [Example 257] | 71%
30 | CN1N(Cc2cccc(F)c2F)C(=O)C(C(=O)Nc2ccc(Br)c(C(F)(F)F)n2)=C(O)C12CCC2 [Example 258] | 87%
31 | Cc1nc(NC(=O)C2=C(O)C3(CCC3)N(C)N(Cc3cccc(F)c3F)C2=O)ccc1Br [Example 259] | 52%
32 | CN1N(Cc2cccc(F)c2F)C(=O)C(C(=O)Nc2ccc(C(F)(F)F)cc2-c2cc(C(F)(F)F)ncn2)=C(O)C12CCCC2 [Example 260] | 70%
33 | CN1N(Cc2cccc(F)c2F)C(=O)C(C(=O)Nc2ccc(Cl)cc2-c2cc(C(F)(F)F)ncn2)=C(O)C12CCCC2 [Example 261] | 77%
34 | Cc1nc(NC(=O)C2=C(O)C3(CCCC3)N(C)N(Cc3cccc(F)c3F)C2=O)ccc1Br [Example 262] | 43%
35 | CN1N(Cc2cccc(F)c2F)C(=O)C(C(=O)Nc2ccc(Br)c(C(F)(F)F)n2)=C(O)C12CCCC2 [Example 263] | 66%
